In ChEMBL document CHEMBL5729410, “Urea-substituted aromatic ring-linked dioxinoquinoline compounds, preparation method and uses thereof” (2022) one finds IC50 data, which are given here for three compounds.

For experiment [1], the target named is Proto-oncogene tyrosine-protein kinase receptor Ret (Homo sapiens, UniProt P07949). Nature of the experiment: Assay of Small Molecular Compounds for Inhibiting the Activity of RET Kinase: The assay is based on the LANCE TR-FRET technology of Perkin Elmer Inc., and the assay method is as follows:1. (In TR-FRET formats the signal depends on donor and acceptor labels being close together.)
Proto-oncogene tyrosine-protein kinase receptor Ret, sequence (P07949 whole entry): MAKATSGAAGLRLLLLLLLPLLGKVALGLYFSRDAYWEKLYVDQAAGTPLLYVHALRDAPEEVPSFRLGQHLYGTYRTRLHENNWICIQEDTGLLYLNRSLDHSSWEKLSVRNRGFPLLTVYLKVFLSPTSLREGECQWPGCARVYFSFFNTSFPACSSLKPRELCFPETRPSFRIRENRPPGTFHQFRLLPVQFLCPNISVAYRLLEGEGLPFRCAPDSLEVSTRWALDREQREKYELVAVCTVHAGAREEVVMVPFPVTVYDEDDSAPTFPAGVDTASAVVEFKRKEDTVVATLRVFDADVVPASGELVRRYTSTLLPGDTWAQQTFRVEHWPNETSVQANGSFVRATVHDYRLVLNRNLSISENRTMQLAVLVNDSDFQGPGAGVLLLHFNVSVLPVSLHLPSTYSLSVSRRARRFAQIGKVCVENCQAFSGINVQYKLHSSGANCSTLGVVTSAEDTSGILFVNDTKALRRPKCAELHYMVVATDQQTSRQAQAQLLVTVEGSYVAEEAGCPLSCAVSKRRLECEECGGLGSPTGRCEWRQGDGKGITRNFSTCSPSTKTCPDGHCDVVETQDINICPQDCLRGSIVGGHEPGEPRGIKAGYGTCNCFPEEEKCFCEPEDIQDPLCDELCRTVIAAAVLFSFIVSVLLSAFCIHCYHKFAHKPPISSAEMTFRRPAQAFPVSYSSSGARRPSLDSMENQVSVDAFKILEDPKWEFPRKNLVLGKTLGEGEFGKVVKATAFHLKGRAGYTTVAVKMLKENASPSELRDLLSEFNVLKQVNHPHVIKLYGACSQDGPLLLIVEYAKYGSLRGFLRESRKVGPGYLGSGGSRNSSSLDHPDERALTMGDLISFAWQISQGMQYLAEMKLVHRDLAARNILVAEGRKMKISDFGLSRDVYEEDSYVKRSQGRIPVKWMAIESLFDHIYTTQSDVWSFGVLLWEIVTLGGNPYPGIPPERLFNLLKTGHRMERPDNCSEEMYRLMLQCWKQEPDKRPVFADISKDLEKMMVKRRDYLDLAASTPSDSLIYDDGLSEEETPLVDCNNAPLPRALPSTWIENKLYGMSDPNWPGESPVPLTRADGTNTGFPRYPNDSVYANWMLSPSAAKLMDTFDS

In experiment [2] the target is Vascular endothelial growth factor receptor 2 (Homo sapiens, UniProt P35968). The experiment is described as follows: Assay of Small Molecular Compounds for Inhibiting the Activity of VEGFR-2 Kinase: The assay is based on the LANCE TR-FRET technology of Perkin Elmer Inc., and the assay method is as follows:1.
Vascular endothelial growth factor receptor 2, sequence (P35968 whole entry): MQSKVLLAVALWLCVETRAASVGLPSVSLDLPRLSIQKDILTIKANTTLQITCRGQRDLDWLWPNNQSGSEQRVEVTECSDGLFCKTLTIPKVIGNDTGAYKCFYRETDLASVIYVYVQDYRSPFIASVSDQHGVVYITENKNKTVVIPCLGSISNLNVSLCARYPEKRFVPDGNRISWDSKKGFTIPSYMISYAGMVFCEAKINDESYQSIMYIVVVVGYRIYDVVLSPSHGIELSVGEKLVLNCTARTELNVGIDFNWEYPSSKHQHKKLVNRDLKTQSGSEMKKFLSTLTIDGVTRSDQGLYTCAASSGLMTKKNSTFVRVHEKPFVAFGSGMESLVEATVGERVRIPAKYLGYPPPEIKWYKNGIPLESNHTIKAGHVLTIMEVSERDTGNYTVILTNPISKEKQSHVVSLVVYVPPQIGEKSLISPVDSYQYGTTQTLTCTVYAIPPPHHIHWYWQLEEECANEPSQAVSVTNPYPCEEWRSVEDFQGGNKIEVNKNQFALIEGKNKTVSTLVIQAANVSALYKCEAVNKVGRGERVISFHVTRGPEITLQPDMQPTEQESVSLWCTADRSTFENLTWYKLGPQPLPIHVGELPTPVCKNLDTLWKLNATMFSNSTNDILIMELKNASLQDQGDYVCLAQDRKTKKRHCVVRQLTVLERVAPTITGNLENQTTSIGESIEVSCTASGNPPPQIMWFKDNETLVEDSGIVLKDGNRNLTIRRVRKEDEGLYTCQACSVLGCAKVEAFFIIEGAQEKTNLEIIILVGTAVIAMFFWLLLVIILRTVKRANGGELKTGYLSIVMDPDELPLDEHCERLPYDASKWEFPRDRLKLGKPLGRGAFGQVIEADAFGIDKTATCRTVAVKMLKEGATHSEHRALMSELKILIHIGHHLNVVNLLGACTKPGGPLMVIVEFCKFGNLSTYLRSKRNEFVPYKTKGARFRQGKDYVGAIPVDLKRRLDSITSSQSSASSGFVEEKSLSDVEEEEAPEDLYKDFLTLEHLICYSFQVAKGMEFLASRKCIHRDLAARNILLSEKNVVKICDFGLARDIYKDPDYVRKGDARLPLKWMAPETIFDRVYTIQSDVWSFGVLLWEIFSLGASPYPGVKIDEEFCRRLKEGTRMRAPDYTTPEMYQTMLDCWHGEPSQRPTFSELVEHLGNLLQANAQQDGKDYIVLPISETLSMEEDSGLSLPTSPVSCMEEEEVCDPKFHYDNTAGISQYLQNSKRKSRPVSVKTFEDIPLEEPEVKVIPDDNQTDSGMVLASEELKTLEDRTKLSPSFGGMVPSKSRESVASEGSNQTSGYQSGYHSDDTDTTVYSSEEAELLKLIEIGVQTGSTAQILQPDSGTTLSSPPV

For orientation: IC50 means the midpoint of a concentration-inhibition curve. In experiment [1], `O=C(Nc1ccc(Oc2ccnc3cc(OC4CCOCC4)c4c(c23)OCCO4)cc1Cl)NC1CC1` gave a concentration for half-maximal inhibition (IC50) of under 50 nM. On to `CN(CCCOc1cc2nccc(Oc3ccc(NC(=O)Nc4ccc(Cl)c(C(F)(F)F)c4)cc3)c2c2c1OCCO2)C1CCC1`, for which the IC50 in experiment [2] and in experiment [1] was under 50 nM throughout. Consider `O=C(Nc1ccc(Oc2ccnc3cc(OCCCN4CCOCC4)c4c(c23)OCCO4)cc1F)NC1CC1`, for which the half-inhibitory concentration (IC50) in experiment [2] and in experiment [1] was under 50 nM each time.
